{"source": "patent US11793787B2", "about": "“Methods and compositions for enhancing anti-tumor immunity by targeting steroidogenesis” (The Broad Institute, Inc., priority 2019, dated 2023)", "key": {"[1]": {"system": "MC38-Ova tumor explants", "test": "MC38-Ova tumor explants cultured with Metyrapone, corticosterone ELISA", "type": "cell-based, mouse", "conditions": "24 hrs, Metyrapone 25 or 50 ng/ml", "protocol": "(§1) In vivo and in vitro modulation of glucocorticoid synthesis. MC38-Ova^dim was implanted in wild type C57BL/6 mice and either Metyrapone (50 mg/kg; Fisher Scientific), Corticosterone (2.5 mg/kg) or vehicle control PBS (Gibco) was administered intra-tumorally on Day 5, 6, 7 and 9 post-tumor implantation. In some experiments, MC38-Ova^dim tumor explants or sorted lin^−CD45^+CD24^− cells were cultured in the presence or absence of Metyrapone (25 or 50 ng/ml) for 24 hrs. Supernatants were harvested and corticosterone measured by ELISA (Arbor Assays)."}, "[2]": {"system": "CD8+ TILs", "test": "Flow cytometry of CD8+ TILs from Metyrapone-treated tumor-bearing mice", "type": "in vivo, mouse", "conditions": "intra-tumoral Metyrapone, early stage of tumor progression", "protocol": "as §1, with “Isolation of TILs. TILs were isolated by dissociating tumor tissue in the presence of collagenase D (2.5 mg/ml) for 20 minutes prior to centrifugation on a discontinuous Percoll gradient (GE Healthcare). Isolated cells were then used in various assays. Flow cytometry. […] Antigen specific […] […] In vivo” for “In vivo”, “or sorted lin^-CD45^+CD24^- cells were” for “or sorted lin^−CD45^+CD24^− cells were”"}, "[3]": {"system": "Lin-CD45+CD24- monocyte/macrophages from MC38-Ova tumors", "test": "Tumor-associated monocyte/macrophages cultured with Metyrapone, corticosterone ELISA", "type": "cell-based, mouse", "conditions": "24 hrs culture ex vivo", "protocol": "as §1"}, "[4]": {"system": "MC38-Ova colon carcinoma", "test": "Intra-tumoral Metyrapone in MC38-Ova tumor-bearing mice, tumor growth", "type": "in vivo, mouse", "conditions": "50 mg/kg, Days 5, 6, 7 and 9", "excerpt": "Tumor cell lines used. MC38-Ova^dim was generously provided by Mark Smyth. B16F10 was purchased from ATCC. MC38 was generously provided by Carla Rothlin. MC38-Ova^dim-GFP was generated in Applicants lab as follows, HEK293T cells were transfected with pLenti PGK GFP Puro plasmid. The resulting Lentivirus was then used to infect Mc38Ova^dim cell line to generate a GFP expressing cell line. MC38-Ova^dim (0.5×10^6) or B16F10 (0.25×10^6) and MC38-Ova^dim-GFP (0.5×10^6) cells were implanted subcutaneously into the right flank of mice.\nTumor experiments. Tumor size was measured in two dimensions by caliper and is expressed as the product of two perpendicular diameters. In some experiments, mice were treated with anti-PD-1 (RMP1-14) ([…]) antibodies or control immunoglobulin (Rat IgG2a) i.p. on days 5, 8 and 11 post-tumor implantation. Mice were then monitored for tumor growth. […] Antibodies were administered bi-weekly for a total of 5 treatments (n=9-10).\nas §1, with “In some experiments, MC38-Ova^dim tumor explants or sorted lin^−CD45^+CD24^− cells were cultured in the presence or absence of Metyrapone (25 or 50 ng/ml) for 24 hrs.” left out"}, "[5]": {"system": "MC38-Ova dim colon carcinoma", "test": "Intra-tumoral corticosterone in LysMCre+ Cyp11a1fl/fl mice bearing MC38-Ova dim, tumor progression", "type": "in vivo, mouse", "conditions": "intra-tumoral corticosterone 2.5 mg/kg, Days 5, 6, 7 and 9", "description": "Tumor experiments. Tumor size was measured in two dimensions by caliper and is expressed as the product of two perpendicular diameters. […] Mice were then monitored for tumor growth. […] In vivo and in vitro modulation of glucocorticoid synthesis. MC38-Ova^dim was implanted in wild type C57BL/6 mice and either Metyrapone (50 mg/kg; Fisher Scientific), Corticosterone (2.5 mg/kg) or vehicle control PBS (Gibco) was administered intra-tumorally on Day 5, 6, 7 and 9 post-tumor implantation."}, "[6]": {"system": "CD8+ T cells", "test": "RNA-Seq of naive CD8+ T cells cultured with Dex (GC), IL-27 or GC+IL-27 (Tables 1, 2A, 2B, 3, 5-8)", "type": "cell-based, mouse"}, "[7]": {"system": "CD8+ T cells", "test": "Quantitative RT-PCR of Prdm1, Nfil3 and Tcf7 in GC, IL-27 or GC+IL-27 treated CD8+ T cells", "type": "cell-based, mouse", "conditions": "qPCR", "protocol": "Cell culture and treatment with glucocorticoid.\nQuantitative PCR. Total RNA was extracted using RNeasy columns (Qiagen) or PicoPure™ RNA Isolation Kit (Thermo Fischer). Reverse transcription of mRNA was performed in a thermal cycler (Bio-Rad) using iScript cDNA Synthesis Kit (Bio-Rad) or SuperScript™ VILO™ cDNA Synthesis Kit (Thermo Fischer). qPCR was performed in the Vii7 Real-Time PCR system (Applied Biosystems) using the primers for Taqman gene expression (Applied Biosystems). Data were normalized to the expression of Actb."}, "[8]": {"conditions": "treated CD8+ T cells, three values per condition, listed as Dex"}, "[9]": {"conditions": "treated CD8+ T cells, three values per condition"}}, "note": "“And” between values parts separate entries of the source, which are not always exact repeats. Equal entries are not always repeated. “Also recorded” adds a separate entry of the source."}
{"molecule": "CC(C)(C(=O)c1cccnc1)c1cccnc1", "note": "[Metyrapone]", "values": [{"measurement": "level of corticosterone in tumor explant supernatants", "setting": "[1]", "value": "reduced and less"}, {"measurement": "functional properties of CD8+ TILs compared with loss of GR in CD8+ T cells", "setting": "[2]", "value": "resembled that of CD8^+ TILs from E8i-Cre^+ Nr3c1^fl/fl mice and LysM-Cre^+ Cyp11a1^fl/fl mice"}, {"measurement": "functional properties of CD8+ TILs compared with loss of GR in CD8+ T cells", "setting": "[2]; listed as metyrapone", "value": "phenocopies CD8 GR cKO"}, {"measurement": "corticosterone production by tumor-associated monocyte/macrophages", "setting": "[3]", "value": "dramatically reduced; also recorded: significantly inhibited"}, {"measurement": "tumor growth", "setting": "[4]", "value": "dramatic tumor growth inhibition"}]}
{"molecule": "C[C@]12C[C@H](O)[C@H]3[C@@H](CCC4=CC(=O)CC[C@@]43C)[C@@H]1CC[C@@H]2C(=O)CO", "note": "[corticosterone]", "values": [{"measurement": "control of tumor progression in LysMCre+ Cyp11a1fl/fl mice", "setting": "[5]", "value": "abrogated"}]}
{"molecule": "C[C@@H]1C[C@H]2[C@@H]3CCC4=CC(=O)C=C[C@]4(C)[C@@]3(F)[C@@H](O)C[C@]2(C)[C@@]1(O)C(=O)CO", "note": "[dexamethasone]", "values": [{"measurement": "number of GC-induced genes overlapping with the T cell dysfunction signature", "setting": "[6]; GC versus vehicle control, Table 8", "value": 463}, {"measurement": "1124 expression levels", "setting": "[6]; [8]", "value": "156.6 and 224.35 and 191"}, {"measurement": "CD28 expression levels", "setting": "[6]; [8]", "value": "31.98 and 33.89 and 35.83"}, {"measurement": "Lilrb4 expression levels", "setting": "[6]; [8]", "value": "179.28 and 174.41 and 160.09"}, {"measurement": "Nupr1 expression levels", "setting": "[6]; [8]", "value": "11.81 and 14.26 and 21.7"}, {"measurement": "Tcf7 expression levels", "setting": "[6]; [8]", "value": "9.54 and 8.42 and 8.72"}, {"measurement": "Tgfb3 expression levels", "setting": "[6]; [8]", "value": "8.53 and 5.51 and 5.9"}]}
{"molecule": "IL-27: heterodimeric cytokine of the IL-12 family composed of EBI3 and IL-27p28 (protein, UniProt Q14213 21-229; Q8NEV9 29-243, looked up) Interleukin-27 subunit beta: RKGPPAALTLPRVQCRASRYPIAVDCSWTLPPAPNSTSPVSFIATYRLGMAARGHSWPCLQQTPTSTSCTITDVQLFSMAPYVLNVTAVHPWGSSSSFVPFITEHIIKPDPPEGVRLSPLAERQLQVQWEPPGSWPFPEIFSLKYWIRYKRQGAARFHRVGPIEATSFILRAVRPRARYYVQVAAQDLTDYGELSDWSLPATATMSLGK Interleukin-27 subunit alpha: FPRPPGRPQLSLQELRREFTVSLHLARKLLSEVRGQAHRFAESHLPGVNLYLLPLGEQLPDVSLTFQAWRRLSDPERLCFISTTLQPFHALLGGLGTQGRWTNMERMQLWAMRLDLRDLQRHLRFQVLAAGFNLPEEEEEEEEEEEEERKGLLPGALGSALQGPAQVSWPQLLSTYRLLHSLELVLSRAVRELLLLSKAGHSVWPLGFPTLSPQP", "values": [{"measurement": "Tcf7 expression", "setting": "[7]", "value": "dramatically reduced"}, {"measurement": "CD28 expression levels", "setting": "[6]; [9]", "value": "48.93 and 37.2 and 39.84"}, {"measurement": "Lilrb4 expression levels", "setting": "[6]; [9]", "value": "73.62 and 94.25 and 105.87"}, {"measurement": "Nupr1 expression levels", "setting": "[6]; [9]", "value": "11.93 and 21.86 and 19.79"}, {"measurement": "Tcf7 expression levels", "setting": "[6]; [9]", "value": "5.37 and 7.39 and 5.57"}]}
